Experimental findings from patent US20210277003A1, “OGA INHIBITOR COMPOUNDS” (Janssen Pharmaceutica NV, priority 2018, published 2021) are described below.

Test [1] concerns the target T1, recombinant human Meningioma Expressed Antigen 5 (MGEA5), also referred to as O-GlcNAcase (OGA) (Homo sapiens, UniProt O60502).
T1 construct: Full length OGA enzyme was purchased at OnGene (cat #TP322411); purchased OnGene (so in the source)
T1 sequence (O60502 1-916): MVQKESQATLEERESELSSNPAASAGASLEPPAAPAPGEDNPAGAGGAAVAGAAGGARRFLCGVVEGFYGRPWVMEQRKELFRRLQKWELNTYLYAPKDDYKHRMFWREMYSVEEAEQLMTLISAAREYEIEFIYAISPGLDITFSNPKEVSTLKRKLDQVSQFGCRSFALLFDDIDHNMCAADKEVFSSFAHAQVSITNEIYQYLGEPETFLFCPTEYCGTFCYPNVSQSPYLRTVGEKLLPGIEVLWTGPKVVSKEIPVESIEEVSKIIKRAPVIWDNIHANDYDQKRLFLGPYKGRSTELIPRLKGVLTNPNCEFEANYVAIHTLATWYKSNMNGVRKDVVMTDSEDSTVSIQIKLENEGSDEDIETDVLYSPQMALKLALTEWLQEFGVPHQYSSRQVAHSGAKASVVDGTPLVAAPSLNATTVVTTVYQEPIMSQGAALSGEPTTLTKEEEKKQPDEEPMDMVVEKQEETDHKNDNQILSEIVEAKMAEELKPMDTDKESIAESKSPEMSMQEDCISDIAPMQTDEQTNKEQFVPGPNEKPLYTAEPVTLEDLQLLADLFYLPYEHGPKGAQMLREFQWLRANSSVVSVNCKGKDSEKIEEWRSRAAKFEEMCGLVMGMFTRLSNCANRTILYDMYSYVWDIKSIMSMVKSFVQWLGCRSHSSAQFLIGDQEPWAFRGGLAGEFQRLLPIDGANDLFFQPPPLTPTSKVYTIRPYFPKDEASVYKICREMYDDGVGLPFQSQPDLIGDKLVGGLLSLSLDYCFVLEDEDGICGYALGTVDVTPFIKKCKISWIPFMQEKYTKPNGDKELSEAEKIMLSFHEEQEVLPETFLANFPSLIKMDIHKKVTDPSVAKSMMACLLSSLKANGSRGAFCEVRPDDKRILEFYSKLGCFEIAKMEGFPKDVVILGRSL
Nature of the test: OGA biochemical assay: inhibition of hydrolysis of fluorescein mono-ß-D-N-Acetyl-Glucosamine (FM-GlcNAc), fluorescence readout. The settings on record: FM-GlcNAc substrate; for Emax: read-out: Enzymatic Emax (%); for IC50: read-out: Enzymatic hOGA, pIC50 (converted). The method, boiled down:
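Full-length recombinant human OGA (2 nM) was pre-incubated with compound for 60 min, then reacted with 100 uM FM-GlcNAc for 6 h at room temperature in 200 mM citrate/phosphate pH 7.2 with 0.005% Tween-20. Reactions were stopped with pH 11.0 carbonate and fluorescein read at 485/538 nm. IC50 and Hill coefficient came from curve fitting.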

Test [2] concerns OGA in HEK293 cells inducible for P301L mutant human Tau (isoform 2N4R). Nature of the test: OGA cellular assay: immunocytochemical detection of O-GlcNAcylated proteins (CTD110.6 antibody). Type of test: cell-based. The settings on record: Homo sapiens, HEK293, 6 h, 6 hours incubation; for Emax: maximum = Thiamet G 200 uM; for EC50: read-out: Cellular hOGA, pEC50 (converted). The protocol:
HEK293 cells inducible for P301L mutant human Tau (isoform 2N4R) were established at Janssen. Thiamet-G was used for both plate validation (high control) and as reference compound (reference EC50 assay validation). OGA inhibition is evaluated through the immunocytochemical (ICC) detection of O-GlcNAcylated proteins by the use of a monoclonal antibody (CTD110.6; Cell Signaling, #9875) detecting 0-GlcNAcylated residues as previously described (Dorfmueller et al. 2010 Chemistry & biology, 17:1250). Inhibition of OGA will result in an increase of O-GlcNAcylated protein levels resulting in an increased signal in the experiment. Cell nuclei are stained with Hoechst to give a cell culture quality control and a rough estimate of immediate compounds toxicity, if any. ICC pictures are imaged with a Perkin Elmer Opera Phenix plate microscope and quantified with the provided software Perkin Elmer Harmony 4.1.
Cells were propagated in DMEM high Glucose (Sigma, #D5796) following standard procedures. 2 days before the cell assay cells are split, counted and seeded in Poly-D-Lysine (PDL) coated 96-wells (Greiner, #655946) plate at a cell density of 12,000 cells per cm^2 (4,000 cells per well) in 100p of Assay Medium (Low Glucose medium is used to reduce basal levels of GlcNAcylation) (Park et al. 2014 The Journal of biological chemistry 289:13519). At the day of compound test medium from assay plates was removed and replenished with 90 µl of fresh Assay Medium. 10p of compounds at a 10 fold final concentration were added to the wells. Plates were centrifuged shortly before incubation in the cell incubator for 6 hours. DMSO concentration was set to 0.2%. Medium is discarded by applying vacuum. For staining of cells medium was removed and cells washed once with 100 μl D-PBS (Sigma, #D8537). From next step onwards unless other stated assay volume was always 50p and incubation was performed without agitation and at room temperature. Cells were fixed in 50 μl of a 4% paraformaldehyde (PFA, Alpha aesar, #043368) PBS solution for 15 minutes at room temperature. […] Before analysis samples were washed 2 times manually for 5 minutes in ICC base buffer.
Imaging is performed using Perkin Elmer Phenix Opera using a water 20× objective and recording 9 fields per well. Intensity readout at 488 nm is used as a measure of O-GlcNAcylation level of total proteins in wells. To assess potential toxicity of compounds nuclei were counted using the Hoechst staining. IC50-values are calculated using parametric non-linear regression model fitting. As a maximum inhibition Thiamet G at a 200 uM concentration is present on each plate. In addition, a concentration response of Thiamet G is calculated on each plate.

On to `CCCCn1ccc2c(Nc3c(C)cc(C(=O)N4CCOCC4)cc3C)nccc21` [Compound 56], for which, in test [1], the Emax was 101% and the IC50 was 2.69 nM. For the same compound, in test [2], the Emax is 107% and the EC50 is 5.13 nM.

As to `CCCCn1ccc2c(Nc3c(C)cc(C(=O)NC)cc3C)nccc21` [Compound 57], in test [1], the Emax came to 102% and the IC50 was 4.57 nM. In test [2], the Emax is 107% and the EC50 is 11 nM.

Consider `CCCCn1ccc2c(Nc3c(C)ccc(C(=O)NC)c3C)nccc21` [Compound 58], for which, in test [1], the Emax stood at 101% and the IC50 is 3.09 nM. Also, in test [2], the maximum response (Emax) was determined as 88% and the EC50 is 72.4 nM.

On to `CCCCn1ccc2c(Nc3c(C)ccc(C(=O)N(C)C)c3C)nccc21` [Compound 59], for which, in test [1], the Emax turned out to be 101% and the IC50 is 4.37 nM. Moreover, in test [2], the maximum response (Emax) worked out at 88% and the EC50 was 100 nM.

Turning to `CC(C)CCn1ccc2c(Nc3c(Cl)cccc3Cl)nccc21` [Compound 60], in test [1], the maximum response (Emax) was determined as 102% and the IC50 is 3.63 nM. Also, in test [2], the maximum response (Emax) is 86% and the EC50 was 55 nM.

Regarding `CCCCn1ccc2c(Nc3c(C)cc(C(=O)N(C)C)cc3C)nccc21` [Compound 61], in test [1], the Emax was determined as 103% and the IC50 was 3.72 nM. In addition, in test [2], the maximal effect (Emax) was determined as 92% and the EC50 was 5.89 nM.

Turning to `CCCCn1ccc2c(Nc3c(C)cc(NC(C)=O)cc3C)nccc21` [Compound 62], in test [1], the maximal response (Emax) worked out at 101% and the IC50 was 5.37 nM. Moreover, in test [2], the Emax stood at 95% and the EC50 was 9.33 nM.

Turning to `CCCCn1ccc2c(Nc3c(C)cncc3C(C)C)nccc21` [Compound 63], in test [1], the Emax worked out at 103% and the IC50 is 2.88 nM. For the same compound, in test [2], the maximal response (Emax) turned out to be 93% and the EC50 is 12.3 nM.

Turning to `CCCCn1ccc2c(Nc3c(C)cc(C(=O)OC)cc3C)nccc21` [Compound 64], in test [1], the maximal effect (Emax) was 102% and the IC50 was 3.98 nM. Also, in test [2], the maximum response (Emax) amounted to 80% and the EC50 is 24.5 nM.

Regarding `Cc1cncc(Cl)c1Nc1nccc2c1ccn2CCC1CC1` [Compound 65], in test [1], the maximum response (Emax) worked out at 104% and the IC50 was 5.37 nM. Besides, in test [2], the maximum response (Emax) amounted to 69% and the EC50 is 120 nM.

As for `CCCCn1ccc2c(Nc3c(C)cc(C)c(Br)c3C)nccc21` [Compound 66], in test [1], the maximal effect (Emax) amounted to 103% and the IC50 was 3.8 nM. In test [2], the Emax was 84% and the EC50 was 186 nM.

For the compound `CCCCn1ccc2c(Nc3c(C)cccc3C(C)C)nccc21` [Compound 67], in test [1], the Emax is 104% and the IC50 is 0.891 nM. Also, in test [2], the Emax worked out at 99% and the EC50 was 16.2 nM.

`CCCCn1ccc2c(Nc3c(C)cc(C)cc3C)nccc21` [Compound 68]: in test [1], the Emax was determined as 104% and the IC50 was 3.8 nM. Also, in test [2], the maximum response (Emax) worked out at 87% and the EC50 was 57.5 nM.

Consider `Clc1cccc(Cl)c1Nc1nccc2c1ccn2CC1CC1` [Compound 69], for which, in test [1], the Emax amounted to 102% and the IC50 was 3.39 nM. Also, in test [2], the Emax was 82% and the EC50 is 55 nM.

As to `Clc1cccc(Cl)c1Nc1nccc2c1ccn2CCC1CC1` [Compound 70], in test [1], the maximal effect (Emax) amounted to 103% and the IC50 was 1.7 nM. For the same compound, in test [2], the maximal response (Emax) was determined as 82% and the EC50 is 37.2 nM.

In the case of `CCCCn1ccc2c(Nc3c(Cl)cccc3Cl)nccc21` [Compound 71], in test [1], the Emax stood at 101% and the IC50 was 2.24 nM. For the same compound, in test [2], the Emax is 78% and the EC50 is 47.9 nM.

Turning to `CCCCn1ccc2c(Nc3c(C)cccc3C)nccc21` [Compound 72], in test [1], the Emax is 100% and the IC50 is 5.62 nM. Further, in test [2], the Emax is 78% and the EC50 is 53.7 nM.

Regarding `CCCCn1ccc2c(Nc3c(C)cc(F)cc3C)nccc21` [Compound 73], in test [1], the maximal effect (Emax) was 101% and the IC50 is 2.69 nM. For the same compound, in test [2], the maximum response (Emax) worked out at 93% and the EC50 was 53.7 nM.

As to `CCCCn1ccc2c(Nc3c(Cl)cccc3Cl)ncc(F)c21` [Compound 74], in test [1], the maximal effect (Emax) is 100% and the IC50 was 28.8 nM. In test [2], the Emax was determined as 40% and the EC50 is more than 1000 nM.

As to `CCCCn1ccc2c(Nc3c(C)cc(C(=O)N4CCCC4)cc3C)nccc21` [Compound 75], in test [1], the maximum response (Emax) turned out to be 102% and the IC50 was 2.82 nM. In test [2], the Emax is 85% and the EC50 is 6.03 nM.

`CCCCn1ccc2c(Nc3c(Cl)cc4c(c3C)OCCO4)nccc21` [Compound 76]: in test [1], the maximal response (Emax) was 101% and the IC50 is 2.95 nM. Moreover, in test [2], the maximum response (Emax) is 100% and the EC50 is 23.4 nM.

`CCCCn1ccc2c(Nc3c(C)cc4c(ncn4C)c3C)nccc21` [Compound 77]: in test [1], the maximal response (Emax) is 99% and the IC50 is 4.79 nM. Moreover, in test [2], the maximal effect (Emax) is 83% and the EC50 was 7.41 nM.

Consider `CCC(F)Cn1ccc2c(Nc3c(C)ccnc3C)nccc21` (stereo not shown) [Compound 78], for which, in test [1], the maximal effect (Emax) came to 103% and the IC50 was 3.24 nM. In addition, in test [2], the Emax is 96% and the EC50 was 7.94 nM.

Regarding `CCCCn1ccc2c(Nc3c(C)ccnc3C)ncc(F)c21` [Compound 80], in test [1], the Emax turned out to be 100% and the IC50 was 28.8 nM. Further, in test [2], the maximal effect (Emax) came out at 73% and the EC50 is 372 nM.

As to `Cc1ccnc(C(F)F)c1Nc1nccc2c1ccn2CC1CCO1` (stereo not shown) [Compound 81], in test [1], the Emax was determined as 102% and the IC50 is 9.55 nM. Further, in test [2], the Emax came to 74% and the EC50 was 102 nM.

Consider `CC(C)(C#N)Cn1ccc2c(Nc3c(Cl)cc(F)cc3Cl)nccc21` [Compound 83], for which, in test [1], the Emax was 96% and the IC50 is 912 nM. For the same compound, in test [2], the Emax was found to be 8% and the EC50 is more than 1000 nM.

On to `Cc1ccnc(C)c1Nc1nccc2c1ccn2CC(C)(C)C#N` [Compound 84], for which, in test [1], the maximum response (Emax) amounted to 86% and the IC50 was 2140 nM. For the same compound, in test [2], the maximal effect (Emax) was determined as 8% and the EC50 was more than 1000 nM.

For `Cc1ccnc(C(C)C)c1Nc1nccc2c1ccn2CC(F)(F)C1CC1` [Compound 85], in test [1], the Emax was 104% and the IC50 was 0.977 nM. Also, in test [2], the Emax turned out to be 94% and the EC50 is 0.708 nM.
